Experiments:
[1] = Bioavailability in rat; assay type: ADME, organism-based; settings: in vivo
[2] = Terminal half life in rat at 10 mg/kg; assay type: ADME, organism-based; set-up: dose 10 mg/kg; settings: in vivo, read-out: beta t1/2 (converted)
[3] = Cmax in rat at 30 mg/kg; assay type: ADME, organism-based; set-up: dose 30 mg/kg; settings: in vivo
[4] = Plasma clearance in rat at 10 mg/kg; assay type: ADME, organism-based; set-up: dose 10 mg/kg
[5] = Volume of distribution at steady state in rat at 10 mg/kg; assay type: ADME, organism-based; set-up: dose 10 mg/kg; settings: in vivo, read-out: Vdss
[6] = Bioavailability in Beagle dog; assay type: ADME, organism-based, Canis lupus familiaris; settings: in vivo
[7] = Terminal half life in Beagle dog at 10 mg/kg; assay type: ADME, organism-based, Canis lupus familiaris; set-up: dose 10 mg/kg; settings: in vivo, read-out: beta t1/2 (converted)
[8] = Cmax in Beagle dog at 10 mg/kg; assay type: ADME, organism-based, Canis lupus familiaris; set-up: dose 10 mg/kg; settings: in vivo
[9] = Plasma clearance in Beagle dog at 2 mg/kg; assay type: ADME, organism-based, Canis lupus familiaris; set-up: dose 2 mg/kg
[10] = Volume of distribution at steady state in Beagle dog at 2 mg/kg; assay type: ADME, organism-based, Canis lupus familiaris; set-up: dose 2 mg/kg; settings: in vivo, read-out: Vdss
[11] = Bioavailability in cynomolgus monkey; assay type: ADME, organism-based, Macaca fascicularis; settings: in vivo
[12] = Terminal half life in cynomolgus monkey at 10 mg/kg; assay type: ADME, organism-based, Macaca fascicularis; set-up: dose 10 mg/kg; settings: in vivo, read-out: beta t1/2 (converted)
[13] = Cmax in cynomolgus monkey at 4 mg/kg; assay type: ADME, organism-based, Macaca fascicularis; set-up: dose 4 mg/kg; settings: in vivo
[14] = Plasma clearance in cynomolgus monkey at 2 mg/kg; assay type: ADME, organism-based, Macaca fascicularis; set-up: dose 2 mg/kg
[15] = Volume of distribution at steady state in cynomolgus monkey at 2 mg/kg; assay type: ADME, organism-based, Macaca fascicularis; set-up: dose 2 mg/kg; settings: in vivo, read-out: Vdss
[16] = Bioavailability in squirrel monkey; assay type: ADME, organism-based; settings: saimiri, in vivo
[17] = Terminal half life in squirrel monkey at 10 mg/kg; assay type: ADME, organism-based; set-up: dose 10 mg/kg; settings: saimiri, in vivo, read-out: beta t1/2 (converted)
[18] = Cmax in squirrel monkey at 10 mg/kg; assay type: ADME, organism-based; set-up: dose 10 mg/kg; settings: saimiri, in vivo
[19] = Plasma clearance in squirrel monkey at 5 mg/kg; assay type: ADME, organism-based; set-up: dose 5 mg/kg; settings: saimiri
[20] = Volume of distribution at steady state in squirrel monkey at 5 mg/kg; assay type: ADME, organism-based; set-up: dose 5 mg/kg; settings: saimiri, in vivo, read-out: Vdss

`CC(C)c1nccc2c1c(Sc1ccc(Cl)c(Cl)c1)c1n2CC[C@@H]1CC(=O)O` gave a bioavailability [1] of 53%, a half-life [2] of 8.3 h and a Cmax [3] of 28 µM. For the same compound, the clearance [4] was 1.6 mL/min/kg, the Vd [5] was 0.47 L/kg and the bioavailability [6] was 23%. For the same compound, the half-life [7] was 8.6 h, the Cmax [8] was 9 µM and the clearance [9] was 4 mL/min/kg. The Vd [10] was 1.2 L/kg, the bioavailability [11] was 4% and the half-life [12] was 13.8 h. The Cmax [13] was 0.06 µM, the clearance [14] was 21 mL/min/kg and the Vd [15] was 1.2 L/kg. The bioavailability [16] was 43%, the half-life [17] was 1.4 h and the Cmax [18] was 8.5 µM. For the same compound, the clearance [19] was 7.3 mL/min/kg and the Vd [20] was 0.78 L/kg.
